{
  "source": "patent US7396841B2",
  "about": "“Injections” (Takeda Pharmaceutical Company Limited, priority 2000, dated 2008)",
  "assay": "Dissolution of compound A in equimolar 0.2 mol/L sodium hydroxide and appearance of aqueous preparations (Examples 1 and 2)",
  "assay_type": "physicochemical",
  "protocol": "The resultant solutions (1 mL and 2 mL) were filled into vials to prepare injectable compositions of formulations 1 and 2 in Table 1.\nIn accordance with the formulation of preparation solution in Table 2, the compound A was dissolved in the equivalent amount (in molar ratio) of a sodium hydroxide aqueous solution (0.2 mol/L), and then mannitol, N-methylglucamine and a water for injection were added thereto to dissolve followed by sterile filtration with a filter (0.22 μm) made from Durapola (manufactured by Nihon Millipore Ltd.) to prepare a preparation solution for injectable composition A.",
  "data": [
    {"smiles": "Cc1c(OCC(F)(F)F)ccnc1C[S+]([O-])c1nc2ccccc2[nH]1", "note": "(centres unmarked) [Compound A, 2-[[[3-methyl-4-(2,2,2-trifluoroethoxy)-2-pyridinyl]methyl]sulfinyl]-1H-benzimidazole]", "values": [
      {"measurement": "Appearance of resultant solution", "setting": "compound A in equimolar sodium hydroxide aqueous solution (0.2 mol/L)", "result": "transparent and colorless"},
      {"measurement": "Dissolution of compound A", "setting": "in the equivalent amount (in molar ratio) of a sodium hydroxide aqueous solution (0.2 mol/L)", "result": "quickly dissolved"}
    ]}
  ]
}
